For assay [1], the target named is D(2) dopamine receptor (Homo sapiens) (UniProt P14416). In words: Agonist activity at human recombinant dopamine D2 long receptor expressed in CHOK1 cells coexpressing mitochondrial apoaequorin at 100 uM by luminometric analysis relative to quinpirol. Particulars: CHO-K1. It counts as cell-based.
Assay [2] has the same target. In words: Antagonist activity at human recombinant dopamine D2 long receptor expressed in CHOK1 cells coexpressing mitochondrial apoaequorin assessed as inhibition of agonist-induced effect at 50 uM after 15 mins by luminometric analysis relative to haloperidol. Particulars: CHO-K1. It counts as cell-based.
Assay [3] addresses D(1A) dopamine receptor (Homo sapiens) (UniProt P21728). In words: Antagonist activity at human recombinant dopamine D1 receptor expressed in CHOK1 cells assessed as inhibition of agonist-induced cAMP accumulation at 100 uM preincubated for 10 mins prior to agonist addition measured after 30 mins by HTRF assay relative to SCH23390. It is filed as functional, cell-based. Particulars: CHO-K1.

Assay [4] has the same target. In words: Agonist activity at human recombinant dopamine D1 receptor expressed in CHOK1 cells assessed as stimulation of cAMP accumulation at 100 uM after 30 mins by HTRF assay relative to SKF81297. Particulars: CHO-K1. It is filed as functional, cell-based. For orientation: cAMP levels reflect the balance of adenylyl cyclase and phosphodiesterase activity.
For assay [5] the target is unchanged. In words: Antagonist activity at human recombinant dopamine D1 receptor expressed in CHOK1 cells assessed as inhibition of agonist-induced cAMP accumulation at 8 uM preincubated for 10 mins prior to agonist addition measured after 30 mins by HTRF assay relative to SCH23390. Particulars: CHO-K1. It is filed as functional, cell-based.
Assay [6] addresses D(2) dopamine receptor (Homo sapiens) (UniProt P14416). In words: Antagonist activity at human recombinant dopamine D2 long receptor expressed in CHOK1 cells coexpressing mitochondrial apoaequorin assessed as inhibition of agonist-induced effect at 8 uM after 15 mins by luminometric analysis relative to haloperidol. It is filed as cell-based. Particulars: CHO-K1.
For assay [7] the target is unchanged. In words: Agonist activity at human recombinant dopamine D2 long receptor expressed in CHOK1 cells coexpressing mitochondrial apoaequorin at 8 uM by luminometric analysis relative to quinpirol. Particulars: CHO-K1. It is filed as cell-based.
The target of assay [8] is D(1A) dopamine receptor (Homo sapiens) (UniProt P21728). In words: Agonist activity at human recombinant dopamine D1 receptor expressed in CHOK1 cells assessed as stimulation of cAMP accumulation at 8 uM after 30 mins by HTRF assay relative to SKF81297. It is filed as functional, cell-based. Particulars: CHO-K1.
Chain of D(1A) dopamine receptor (Homo sapiens) (P21728 whole entry): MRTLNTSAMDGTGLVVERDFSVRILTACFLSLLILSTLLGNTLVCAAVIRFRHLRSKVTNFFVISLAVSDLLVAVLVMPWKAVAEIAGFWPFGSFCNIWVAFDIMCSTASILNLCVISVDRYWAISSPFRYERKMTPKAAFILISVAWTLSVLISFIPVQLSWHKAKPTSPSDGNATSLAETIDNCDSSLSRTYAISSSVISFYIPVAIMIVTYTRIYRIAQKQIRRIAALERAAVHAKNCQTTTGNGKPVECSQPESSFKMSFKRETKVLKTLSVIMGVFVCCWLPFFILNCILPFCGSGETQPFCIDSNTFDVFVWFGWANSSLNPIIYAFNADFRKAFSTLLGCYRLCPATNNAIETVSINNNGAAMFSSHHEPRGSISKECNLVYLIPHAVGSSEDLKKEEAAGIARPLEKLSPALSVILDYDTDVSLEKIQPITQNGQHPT
Assay [9] addresses T1, Prostaglandin G/H synthase 1 (Homo sapiens, UniProt P23219). In words: Inhibition of COX-1 (unknown origin) using arachidonic acid as substrate assessed as formation of prostanoid products preincubated for 10 mins prior to substrate addition measured after 2 mins by Ellman's method. Background: DTNB colorimetry detects thiols as they appear.
In assay [10] the target is T1, Prostaglandin G/H synthase 1. In words: Inhibition of COX-1 (unknown origin) using arachidonic acid as substrate assessed as formation of prostanoid products at 500 uM preincubated for 10 mins prior to substrate addition measured after 2 mins by Ellman's method relative to control.
Assay [11] addresses T2, Prostaglandin G/H synthase 2 (Homo sapiens, UniProt P35354).
T2 sequence (P35354 whole entry): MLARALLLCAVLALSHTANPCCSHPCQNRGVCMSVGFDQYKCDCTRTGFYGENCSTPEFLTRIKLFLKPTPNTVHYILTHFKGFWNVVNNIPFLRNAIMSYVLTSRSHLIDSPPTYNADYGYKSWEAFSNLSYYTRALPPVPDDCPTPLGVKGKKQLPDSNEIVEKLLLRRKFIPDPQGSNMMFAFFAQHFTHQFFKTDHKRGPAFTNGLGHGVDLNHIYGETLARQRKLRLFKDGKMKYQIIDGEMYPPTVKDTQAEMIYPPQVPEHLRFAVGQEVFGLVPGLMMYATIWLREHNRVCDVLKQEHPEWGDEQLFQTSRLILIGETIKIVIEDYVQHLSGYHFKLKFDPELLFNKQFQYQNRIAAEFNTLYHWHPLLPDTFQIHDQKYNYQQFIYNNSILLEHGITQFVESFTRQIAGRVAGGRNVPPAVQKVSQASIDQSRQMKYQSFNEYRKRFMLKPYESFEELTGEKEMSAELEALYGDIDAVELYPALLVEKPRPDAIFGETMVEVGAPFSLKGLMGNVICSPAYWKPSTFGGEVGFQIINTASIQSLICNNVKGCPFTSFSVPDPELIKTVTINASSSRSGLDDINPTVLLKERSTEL
In words: Inhibition of COX-2 (unknown origin) using arachidonic acid as substrate assessed as formation of prostanoid products preincubated for 10 mins prior to substrate addition measured after 2 mins by Ellman's method.

The target in assay [12] is T3, Angiotensin-converting enzyme (Homo sapiens, UniProt P12821). In words: Inhibition of ACE (unknown origin) assessed as 3-Hydroxybutyril-glycil-glycil-glycine conversion to 3-hydroxybutyric acid after 60 mins by WST assay.
T3 sequence (P12821 whole entry): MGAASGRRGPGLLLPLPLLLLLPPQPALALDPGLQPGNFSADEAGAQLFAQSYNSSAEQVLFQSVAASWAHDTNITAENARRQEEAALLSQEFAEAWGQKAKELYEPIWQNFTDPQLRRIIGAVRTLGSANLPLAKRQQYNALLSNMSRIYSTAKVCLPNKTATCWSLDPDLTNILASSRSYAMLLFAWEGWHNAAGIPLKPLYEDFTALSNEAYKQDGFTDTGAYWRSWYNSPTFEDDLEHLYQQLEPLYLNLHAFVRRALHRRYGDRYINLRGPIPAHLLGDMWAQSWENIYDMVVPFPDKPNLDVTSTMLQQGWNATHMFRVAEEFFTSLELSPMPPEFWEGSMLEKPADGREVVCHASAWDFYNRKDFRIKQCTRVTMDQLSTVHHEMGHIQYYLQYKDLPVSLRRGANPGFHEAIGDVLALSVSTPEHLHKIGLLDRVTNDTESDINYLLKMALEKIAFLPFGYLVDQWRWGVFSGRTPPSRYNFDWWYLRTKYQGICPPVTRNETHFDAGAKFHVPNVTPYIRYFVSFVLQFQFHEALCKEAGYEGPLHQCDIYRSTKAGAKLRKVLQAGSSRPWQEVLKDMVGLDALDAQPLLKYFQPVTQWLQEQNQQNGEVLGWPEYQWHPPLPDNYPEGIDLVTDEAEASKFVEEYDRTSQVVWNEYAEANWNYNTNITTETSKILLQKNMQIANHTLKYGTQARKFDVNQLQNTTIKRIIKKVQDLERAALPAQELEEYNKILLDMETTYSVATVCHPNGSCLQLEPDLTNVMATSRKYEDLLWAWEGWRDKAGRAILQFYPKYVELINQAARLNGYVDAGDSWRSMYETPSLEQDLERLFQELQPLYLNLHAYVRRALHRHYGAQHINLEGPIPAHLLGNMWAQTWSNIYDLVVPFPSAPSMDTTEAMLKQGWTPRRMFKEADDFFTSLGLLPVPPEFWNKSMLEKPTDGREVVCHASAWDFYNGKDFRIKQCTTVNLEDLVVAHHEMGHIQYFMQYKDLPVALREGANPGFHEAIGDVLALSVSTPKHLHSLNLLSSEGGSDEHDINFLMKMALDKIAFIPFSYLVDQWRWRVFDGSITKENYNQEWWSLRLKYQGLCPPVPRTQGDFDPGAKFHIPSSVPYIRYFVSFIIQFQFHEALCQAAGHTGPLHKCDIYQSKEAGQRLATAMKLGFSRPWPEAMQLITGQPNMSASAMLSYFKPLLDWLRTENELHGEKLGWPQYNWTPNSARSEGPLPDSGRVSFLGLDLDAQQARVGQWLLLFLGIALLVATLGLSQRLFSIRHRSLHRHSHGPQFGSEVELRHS
In assay [13] the target is T3, Angiotensin-converting enzyme. In words: Inhibition of ACE (unknown origin) assessed as 3-Hydroxybutyril-glycil-glycil-glycine conversion to 3-hydroxybutyric acid at 500 uM after 60 mins by WST assay relative to control.
The target is the same in assay [14]. In words: Inhibition of ACE (unknown origin) assessed as 3-Hydroxybutyril-glycil-glycil-glycine conversion to 3-hydroxybutyric acid at 128 uM after 60 mins by WST assay relative to control.

These results are taken from ChEMBL document CHEMBL3085742, “Experimental confirmation of new drug-target interactions predicted by Drug Profile Matching” (J Med Chem, 2013).

T1 sequence (P23219 whole entry): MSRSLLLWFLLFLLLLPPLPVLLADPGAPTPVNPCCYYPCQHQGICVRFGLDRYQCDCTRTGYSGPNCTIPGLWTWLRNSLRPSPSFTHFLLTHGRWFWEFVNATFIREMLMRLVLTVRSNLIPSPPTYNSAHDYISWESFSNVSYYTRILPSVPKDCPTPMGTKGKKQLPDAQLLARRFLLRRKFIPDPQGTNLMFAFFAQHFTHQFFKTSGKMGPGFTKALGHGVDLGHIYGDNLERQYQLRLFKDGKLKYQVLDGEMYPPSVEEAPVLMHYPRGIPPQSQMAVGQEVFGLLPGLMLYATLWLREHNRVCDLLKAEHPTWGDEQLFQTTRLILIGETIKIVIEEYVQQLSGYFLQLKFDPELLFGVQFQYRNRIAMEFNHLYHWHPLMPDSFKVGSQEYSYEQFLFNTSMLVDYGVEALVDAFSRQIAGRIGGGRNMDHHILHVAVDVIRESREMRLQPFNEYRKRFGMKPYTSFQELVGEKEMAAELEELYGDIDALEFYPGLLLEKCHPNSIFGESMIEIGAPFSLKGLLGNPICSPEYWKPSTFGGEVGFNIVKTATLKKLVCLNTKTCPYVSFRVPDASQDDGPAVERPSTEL
Chain of D(2) dopamine receptor (Homo sapiens) (P14416 whole entry): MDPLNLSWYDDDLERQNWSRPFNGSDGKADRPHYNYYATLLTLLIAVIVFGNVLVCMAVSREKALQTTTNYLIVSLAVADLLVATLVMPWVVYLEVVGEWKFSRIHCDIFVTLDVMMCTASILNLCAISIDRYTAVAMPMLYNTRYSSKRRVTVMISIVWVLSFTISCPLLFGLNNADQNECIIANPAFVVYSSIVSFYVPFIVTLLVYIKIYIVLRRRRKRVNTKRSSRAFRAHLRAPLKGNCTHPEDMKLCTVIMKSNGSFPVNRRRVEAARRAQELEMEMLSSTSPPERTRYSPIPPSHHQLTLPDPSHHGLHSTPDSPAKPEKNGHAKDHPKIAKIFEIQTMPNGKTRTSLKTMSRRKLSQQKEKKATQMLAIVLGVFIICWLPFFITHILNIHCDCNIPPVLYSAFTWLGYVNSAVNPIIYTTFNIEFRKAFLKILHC

With `CN(C)CCCN1c2ccccc2CCc2ccc(Cl)cc21`, the Activity in [1] is 13%; in assay [4], -4.5%. Further, the inhibition (as a rule, the relative decrease from the control value, in per cent) in [2] came out at 92%; in [3], 99%.

With `CN(C)CCC=C1c2ccccc2C=Cc2ccccc21`, the results for the Activity in assay [1] and in assay [4] were 1% and -4.7%, respectively. In addition, the inhibition in assay [2] was 95%; in assay [3] it was 98%.

For `O=C(c1ccc(OCCN2CCCCC2)cc1)c1c(-c2ccc(O)cc2)sc2cc(O)ccc12`, the Activity in assay [1] is 4.7%; in [4], -7.2%. In addition, the inhibition in assay [2] amounted to 88%; in [3], 97%.

Take `Cc1ccc(-c2cc(C(F)(F)F)nn2-c2ccc(S(N)(=O)=O)cc2)cc1`: the inhibition was 95% in assay [5] and 96% in assay [6]. Further, the Activity in assay [7] is 175%; in [8] it was 1.8%.

For the molecule `CC/C=C\C/C=C\C/C=C\CCCCCCCC(=O)O` [LINOLENIC ACID], the Ki (commonly a measure of affinity in units of concentration, obtained from inhibition or displacement) in [9] worked out at 4 µM. Further, in assay [10], the inhibition was 100%.

As for `O=[N+]([O-])c1ccc(O)c2ncccc12` [NITROXOLINE], the Ki in assay [11] was determined as 1 µM. In addition, the inhibition in [10] came to 97%.

For `Oc1ccc(OCc2ccccc2)cc1`, the inhibition in [10] is 86%.

As to `CCCc1nc2c(C)cc(-c3nc4ccccc4n3C)cc2n1Cc1ccc(-c2ccccc2C(=O)O)cc1`, in assay [12], the Ki worked out at 6 µM and the inhibition result was “Dose-dependent effect”. For the same molecule, the inhibition in assay [13] amounted to 97%.

Consider `CC(N)C12CC3CC(CC(C3)C1)C2` (stereo not given), for which the Activity in assay [1] was 3.6%; in assay [4] it was -0.8%. Besides, the inhibition was 41% in assay [2] and -0.4% in [3].

Regarding `CCC[C@@]1(CCc2ccccc2)CC(O)=C([C@H](CC)c2cccc(NS(=O)(=O)c3ccc(C(F)(F)F)cn3)c2)C(=O)O1`, the inhibition in assay [14] came to 31%.

As to `Cc1nc(Nc2ncc(C(=O)Nc3c(C)cccc3Cl)s2)cc(N2CCN(CCO)CC2)n1` [DASATINIB], in assay [12], the Ki was found to be 715 µM and the inhibition entry is “Dose-dependent effect”. Further, the inhibition in [13] came to 46%.

Take `O[C@@H](c1cc(C(F)(F)F)nc2c(C(F)(F)F)cccc12)[C@H]1CCCCN1` (relative stereo): the results for the Activity in [1] and in assay [4] were 45% and 0.6%, respectively. Further, the inhibition was 90% in assay [2] and 82% in [3].

As for `CO[C@@H]1[C@@H](OC(N)=O)[C@@H](O)[C@H](Oc2ccc3c(O)c(NC(=O)c4ccc(O)c(CC=C(C)C)c4)c(=O)oc3c2C)OC1(C)C` [NOVOBIOCIN], in assay [12], the Ki came out at 167 µM and the inhibition entry was “Dose-dependent effect”. The inhibition in assay [13] came to 75%.

`C[C@@H]1O[C@@H]1P(=O)(O)O`: the Activity in assay [1] is 0.09%; in [4], -1.2%. Further, the inhibition in assay [2] is 29%; in assay [3] it was -1.3%.

For the molecule `COc1cc2nc(N3CCN(C(=O)C4COc5ccccc5O4)CC3)nc(N)c2cc1OC` (stereo not given), the Activity in assay [1] is 2.4%; in [4], -4.7%. Besides, the inhibition in [3] was found to be 102%.

Regarding `CCc1cccc2c3c([nH]c12)C(CC)(CC(=O)O)OCC3` (stereo not given), the values for the Activity in [1] and in [4] were 0.96% and -1.9%, respectively. For the same molecule, the results for the inhibition in assay [2] and in [3] were 13% and -1.4%, respectively.

Take `C#C[C@]1(O)CC[C@H]2[C@@H]3CCC4=CCCC[C@@H]4[C@H]3C(=C)C[C@@]21CC`: the figures for the Activity in assay [1] and in [4] were 7.1% and 2.8%, respectively. The inhibition is 88% in [2] and 79% in assay [3].

Regarding `O=C(O)[C@@H]1CCCN1` [PROLINE], the Ki in [12] is 86 µM. In addition, the inhibition result in [12] was “Dose-dependent effect”; in [13], 93%.

Take `NC(=O)N/N=C/c1ccc([N+](=O)[O-])o1`: in assay [10], the inhibition is 91%.

Take `O=C1c2c(O)ccc(O)c2C(=O)c2c(NCCNCCO)ccc(NCCNCCO)c21`: the Activity is -0.4% in assay [1] and 66% in assay [4]. Further, the inhibition in assay [2] is 81%; in assay [3] it was 29%.

Consider `CC1(C)NC(=O)N(c2ccc([N+](=O)[O-])c(C(F)(F)F)c2)C1=O`, for which the inhibition in assay [10] is 99%.

Take `CC[C@H]1OC(=O)[C@H](C)[C@@H](O[C@H]2C[C@@](C)(OC)[C@@H](O)[C@H](C)O2)[C@H](C)[C@@H](O[C@@H]2O[C@H](C)C[C@H](N(C)C)[C@H]2O)[C@](C)(O)C[C@@H](C)CN(C)[C@H](C)[C@@H](O)[C@]1(C)O`: the inhibition in assay [10] came to 68%.

As for `O=C(O)CCCCC1CCSS1` (stereo not given), the inhibition in assay [10] turned out to be 95%.

Consider `CC(CN1c2ccccc2Sc2ccccc21)N(C)C` (stereo not given), for which the Activity in assay [1] was 3.5%; in assay [4], -7.4%. For the same molecule, the inhibition in assay [2] stood at 95%; in assay [3], 84%.

As to `Nc1ccc(/N=N/c2ccccc2)c(N)n1`, the inhibition in [10] was found to be 23%.

For the molecule `NS(=O)(=O)c1cc(C(=O)O)c(NCc2ccco2)cc1Cl`, the inhibition in [10] was 36%.

As to `NC1=NCC2c3ccccc3Cc3ccccc3N12` (stereo not given), the results for the Activity in assay [1] and in assay [4] were -0.33% and -1%, respectively. In addition, the inhibition in [2] is 5.5%; in assay [3], 96%.

In the case of `Cc1c(O)cccc1C(=O)N[C@@H](CSc1ccccc1)[C@H](O)CN1C[C@H]2CCCC[C@H]2C[C@H]1C(=O)NC(C)(C)C`, the inhibition in assay [13] is 48%.

As to `CN(C)CC/C=C1/c2ccccc2COc2ccc(CC(=O)O)cc21`, the Activity was -0.14% in assay [1] and -1.7% in assay [4]. Also, the inhibition in assay [2] was found to be 52%; in assay [3], 20%.

Regarding `Nc1nc2[nH]cnc2c(=S)[nH]1`, the Activity in assay [1] was determined as 0.61%; in [4] it was 0.2%. Further, the figures for the inhibition in assay [2] and in assay [3] were 21% and 2.3%, respectively.

For the molecule `C[C@H](CS)C(=O)N1CCC[C@H]1C(=O)O` [CAPTOPRIL], the inhibition constant Ki is 17 µM in [9] and 12 µM in assay [11]. For the same molecule, the inhibition in assay [10] was 48%.

Take `CCn1cc(C(=O)O)c(=O)c2ccc(C)nc21`: the inhibition in [10] was 34%.

For the molecule `O=C1CN(/N=C/c2ccc([N+](=O)[O-])o2)C(=O)N1`, the inhibition in [10] stood at 66%.

For the molecule `CC(C)C(=O)Nc1ccc([N+](=O)[O-])c(C(F)(F)F)c1`, the inhibition in assay [10] stood at 100%.
